Entries after “also recorded” stand apart in the source; their conditions may differ.
Experiments:
mice = tested on: mice; parameters: method as in PMID 29852368; conditions: 200 mg kg^−1 dose; cited from earlier work
[1] = WST-1 proliferation assay, Jurkat; type: cell-based; conditions: human, Jurkat cells (acute T-cell leukemia), vs 0.1% DMSO control = 100%, mean ± standard deviation
Experimental: (§1) A thorough analysis of antiproliferative activity was performed across various cell culture types representing different histotypes: leukemia (Jurkat, MOLT-4), lung adenocarcinoma (A549), colorectal adenocarcinoma (HT-29), pancreatic carcinoma (PANC-1), breast adenocarcinoma (MCF-7), osteosarcoma (SAOS-2), and one non-cancerous cell line (fetal lung fibroblasts MRC-5). The cell lines were exposed to the newly synthesized compounds at a concentration of 100 μM for 48 h in a single-dose treatment. Changes in cell proliferation compared to the vehicle 0.1% dimethyl sulfoxide (DMSO) control were determined using the WST-1 assay, which is based on mitochondrial dehydrogenase metabolic activities. […] The overall cytotoxic activity of each compound was expressed as growth percent (GP) – the mean of the proliferation of all cell lines treated with the same compound.
(§2) Selected human tumor and non-tumor cell lines Jurkat (acute T-cell leukemia), MOLT-4 (acute lymphoblastic leukemia), A549 (lung carcinoma), HT-29 (colorectal adenocarcinoma), PANC-1 (pancreas epithelioid carcinoma), MCF-7 (breast adenocarcinoma), SAOS-2 (osteosarcoma) and MRC-5 (normal lung fibroblasts) were purchased from either American Type Culture Collection (ATCC; VA, USA) or Sigma-Aldrich (St. Louis, MO, USA) and cultured according to the provider's culture method guidelines. All cell lines were maintained at 37 °C in a humidified 5% carbon dioxide and 95% air incubator. Cells in the maximum range of either 10 passages for the adherent cell lines (A549, HT-29, PANC-1, MCF-7, SAOS-2, and MRC-5), or 20 passages for suspension cell lines (Jurkat, MOLT-4,) and in an exponential growth phase were used for this study. Screening of the antiproliferative effect and growth percent calculation were conducted as follows: each cell line was seeded at previously established optimal density (1–50 × 10^3 cells per well) in a 96-well plate (TPP, Trasadingen, Switzerland) and cells were allowed to settle overnight. Cells were treated for 48 h with compounds at a final concentration of 100 μM. At the end of the cultivation period, the WST-1 proliferation assay (Roche, Basel, Switzerland) was performed according to the manufacturer's protocol. The absorbance was measured at 440 nm using a Tecan Spark multimode microplate reader (Tecan, Mannedorf, Switzerland). Each value is the mean of three independent experiments and represents the percentage of proliferation (100% cell proliferation for 0.1% DMSO mock-treated control cells). The GP value was calculated for each compound tested. GP represents the mean of the percentage proliferation decrease of all cell lines treated with the same compound.

[2] = WST-1 proliferation assay, A549; type: cell-based; conditions: human, A549 cells (lung carcinoma), vs 0.1% DMSO control = 100%, mean ± standard deviation
Experimental: as §1, §2

[3] = WST-1 proliferation assay, MRC-5; type: cell-based; conditions: human, MRC-5 cells (normal lung fibroblasts), vs 0.1% DMSO control = 100%, mean ± standard deviation
Experimental: as §1, §2

[4] = WST-1 proliferation assay, MOLT-4; type: cell-based; conditions: human, MOLT-4 cells (acute lymphoblastic leukemia), vs 0.1% DMSO control = 100%, mean ± standard deviation
Experimental: as §1, §2

[5] = WST-1 proliferation assay, PANC-1; type: cell-based; conditions: human, PANC-1 cells (pancreas epithelioid carcinoma), vs 0.1% DMSO control = 100%, mean ± standard deviation
Experimental: as §1, §2

[6] = WST-1 proliferation assay, MCF-7; type: cell-based; conditions: human, MCF-7 cells (breast adenocarcinoma), vs 0.1% DMSO control = 100%, mean ± standard deviation
Experimental: as §1, §2

[7] = WST-1 proliferation assay, HT-29; type: cell-based; conditions: human, HT-29 cells (colorectal adenocarcinoma), vs 0.1% DMSO control = 100%, mean ± standard deviation
Experimental: as §1, §2

[8] = WST-1 proliferation assay, SAOS-2; type: cell-based; conditions: human, SAOS-2 cells (osteosarcoma), vs 0.1% DMSO control = 100%, mean ± standard deviation
Experimental: as §1, §2

[9] = tested on: panel of human cell lines; experiment: Overall cytotoxicity screening across the cell line panel (growth percent); type: cell-based; conditions: 100 μM, 48 h, single-dose treatment, WST-1
Experimental: as §1
Selected human tumor and non-tumor cell lines Jurkat (acute T-cell leukemia), MOLT-4 (acute lymphoblastic leukemia), A549 (lung carcinoma), HT-29 (colorectal adenocarcinoma), PANC-1 (pancreas epithelioid carcinoma), MCF-7 (breast adenocarcinoma), SAOS-2 (osteosarcoma) and MRC-5 (normal lung fibroblasts) were purchased from either American Type Culture Collection (ATCC; VA, USA) or Sigma-Aldrich (St. Louis, MO, USA) and cultured according to the provider's culture method guidelines. […]

Row | Structure (SMILES) | Survival of mice (in words) (mice) | viability at 48 h, 100 µM [1] | viability at 48 h, 100 µM [2] | viability at 48 h, 100 µM [3] | viability at 48 h, 100 µM [4] | viability at 48 h, 100 µM [5] | viability at 48 h, 100 µM [6] | viability at 48 h, 100 µM [7] | viability at 48 h, 100 µM [8] | Overall cytotoxic activity across cell lines (in words) [9]
1 | O=C1N=C(N2CCN(CCO)CC2)S/C1=C\c1ccc(-c2ccccc2)cc1 [CLZ-8] | significantly improved their survival |  |  |  |  |  |  |  |  | 
2 | OCCN1CCN(CC(O)COc2ccc(Oc3ccc(F)cc3)cc2)CC1 (stereo not shown) [Compound 7, 1-(4-(2-Hydroxyethyl)piperazin-1-yl)-3-(4-(4-fluorophenoxy)phenoxy)propan-2-ol] |  | 2% | 6 ± 2% | 0% | 6 ± 5% | 55 ± 6% | 7 ± 7% | 12 ± 2% | 15 ± 5% | severe toxicity to most of the tested cell lines; also recorded: exhibited stand-alone cytotoxicity
3 | OCCN1CCN(CC(O)COc2cc(Cl)c(Cl)cc2Cl)CC1 (stereo not shown) [Compound 8, 1-(4-(2-Hydroxyethyl)piperazin-1-yl)-3-(2,4,5-trichlorophenoxy)propan-2-ol] |  | 28 ± 4% | 92 ± 12% | 15 ± 10% | 41 ± 8% | 101 ± 2% | 41 ± 7% | 33 ± 3% | 42 ± 5% | severe toxicity to most of the tested cell lines; also recorded: exhibited stand-alone cytotoxicity
